Reference: patent US20050288316A1, “Beta-carbolines as growth hormone secretagogue receptor (GHSR) antagonists” (priority 2003, published 2005)

Experiments:
[1] = target: T1, human GHSR (Homo sapiens, UniProt Q92847); assay: Functional FLIPR assay: inhibition of the ghrelin-evoked peak response in CHO cells stably expressing human GHSR (IC50, functional Ki); type: cell-based; conditions: functional Ki calculated from IC50 by Cheng-Prusoff equation, Fluo-4AM, ghrelin at EC70
T1 construct: host or cells: Chinese hamster ovary (CHO) cells
Procedure: Chinese hamster ovary cells (CHO), cell line (ES-410-F) purchased from Euroscreen, stably expressing the human GHSR seeded in 96 well plates are pre-loaded with Fluo-4AM fluorescent dye for 60 min before addition of test compounds (5 μM for primary screen). Fluorescent intensity is recorded using a Fluorometric imaging plate reader (FLIPR 98R 96-well format, Molecular Devices) and inhibition of the peak response evoked by ghrelin (EC70 concentration) is calculated.
Potency (IC50) determinations are performed utilizing the same functional assay as described for primary screening, applying the compounds in the concentration range of 170 pM to 10 μM or 340 pM to 20 μM.
The calculation of the functional Ki values for the inhibitors was performed by use of Activity Base. The Ki value is calculated from IC50 using the Cheng Prushoff equation (with reversible inhibition that follows the Michaelis-Menten equation): […] [Cheng, Y. C.; Prushoff, W. H. Biochem. Pharmacol. 1973, 22, 3099-3108]. […]

T1 sequence (Q92847 whole entry): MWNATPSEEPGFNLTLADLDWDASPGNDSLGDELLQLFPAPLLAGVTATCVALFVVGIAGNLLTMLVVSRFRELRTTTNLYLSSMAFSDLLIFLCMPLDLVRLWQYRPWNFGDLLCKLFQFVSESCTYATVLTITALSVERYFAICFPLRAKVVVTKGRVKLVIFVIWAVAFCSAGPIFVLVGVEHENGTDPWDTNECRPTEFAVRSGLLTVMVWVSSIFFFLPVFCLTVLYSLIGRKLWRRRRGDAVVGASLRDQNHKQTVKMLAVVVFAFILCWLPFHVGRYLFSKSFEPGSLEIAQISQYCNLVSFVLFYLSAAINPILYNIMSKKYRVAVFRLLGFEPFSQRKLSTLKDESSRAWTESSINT

| Compound | melting point [°C] | Ki [1] [nM] |
| --- | --- | --- |
| COc1ccc2[nH]c3c(c2c1)CCNC31CCNC1 (stereo not drawn) [Comparative Example 1, 6-Methoxy-2,3,4,9-tetrahydrospiro[beta-carboline-1,3′-pyrrolidine]] | > 180 |  |
| COc1ccc2[nH]c3c(c2c1)CCNC31CCN(CCOc2ccccc2)C1 (stereo not drawn) [Example 10, 6-Methoxy-1′-(2-phenoxyethyl)-2,3,4,9-tetrahydrospiro[beta-carboline-1,3′-pyrrolidine]] |  | 60 |
| Fc1ccc2c3c([nH]c2c1)C1(CCN(CCOc2ccccc2)C1)NCC3 (stereo not drawn) [Example 11, 7-Fluoro-1′-(2-phenoxyethyl)-2,3,4,9-tetrahydrospiro[beta-carboline-1,3′-pyrrolidine]] |  | 572 |
| CCCCNC(=O)N1CCc2c([nH]c3ccc(OC)cc23)C12CCN(CCOc1ccccc1)C2 (stereo not drawn) [Example 30, N-Butyl-6-methoxy-1′-(2-phenoxyethyl)-4,9-dihydrospiro[beta-carboline-1,3′-pyrrolidine]-2(3H)-carboxamide] |  | 59 |
